According to patent publication US9624214B2, “Amino-substituted imidazo[1,2-a]pyridinecarboxamides and their use” (BAYER PHARMA AKTIENGESELLSCHAFT, priority 2012, dated 2017):
Where a name gives a salt, the structure may show the parent alone.

target: T1, recombinant guanylate cyclase reporter cell line (Rattus norvegicus, UniProt P19686+P20595); test: B-2. Action on recombinant guanylate cyclase reporter cell line; type: cell-based; settings: MEC = minimal effective concentration; in some cases mean values from individual determinations
T1 construct: expressed in transfected cells
T1 sequence (P20595 1-619): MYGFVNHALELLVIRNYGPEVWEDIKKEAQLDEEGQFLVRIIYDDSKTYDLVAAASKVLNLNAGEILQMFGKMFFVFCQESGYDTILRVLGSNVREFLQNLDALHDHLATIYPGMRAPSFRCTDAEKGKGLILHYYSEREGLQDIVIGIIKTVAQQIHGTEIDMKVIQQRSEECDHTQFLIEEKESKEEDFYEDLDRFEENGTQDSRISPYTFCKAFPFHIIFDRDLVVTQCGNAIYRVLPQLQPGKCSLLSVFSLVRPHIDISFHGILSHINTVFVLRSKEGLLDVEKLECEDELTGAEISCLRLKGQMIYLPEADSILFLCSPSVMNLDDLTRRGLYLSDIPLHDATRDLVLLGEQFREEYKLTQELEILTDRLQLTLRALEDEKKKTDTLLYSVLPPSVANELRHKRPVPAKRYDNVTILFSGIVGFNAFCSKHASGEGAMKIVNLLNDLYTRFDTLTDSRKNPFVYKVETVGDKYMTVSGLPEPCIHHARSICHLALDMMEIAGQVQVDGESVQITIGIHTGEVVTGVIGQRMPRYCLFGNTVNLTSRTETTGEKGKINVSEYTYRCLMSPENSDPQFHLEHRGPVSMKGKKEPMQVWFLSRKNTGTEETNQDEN
T1 sequence (P19686 1-690): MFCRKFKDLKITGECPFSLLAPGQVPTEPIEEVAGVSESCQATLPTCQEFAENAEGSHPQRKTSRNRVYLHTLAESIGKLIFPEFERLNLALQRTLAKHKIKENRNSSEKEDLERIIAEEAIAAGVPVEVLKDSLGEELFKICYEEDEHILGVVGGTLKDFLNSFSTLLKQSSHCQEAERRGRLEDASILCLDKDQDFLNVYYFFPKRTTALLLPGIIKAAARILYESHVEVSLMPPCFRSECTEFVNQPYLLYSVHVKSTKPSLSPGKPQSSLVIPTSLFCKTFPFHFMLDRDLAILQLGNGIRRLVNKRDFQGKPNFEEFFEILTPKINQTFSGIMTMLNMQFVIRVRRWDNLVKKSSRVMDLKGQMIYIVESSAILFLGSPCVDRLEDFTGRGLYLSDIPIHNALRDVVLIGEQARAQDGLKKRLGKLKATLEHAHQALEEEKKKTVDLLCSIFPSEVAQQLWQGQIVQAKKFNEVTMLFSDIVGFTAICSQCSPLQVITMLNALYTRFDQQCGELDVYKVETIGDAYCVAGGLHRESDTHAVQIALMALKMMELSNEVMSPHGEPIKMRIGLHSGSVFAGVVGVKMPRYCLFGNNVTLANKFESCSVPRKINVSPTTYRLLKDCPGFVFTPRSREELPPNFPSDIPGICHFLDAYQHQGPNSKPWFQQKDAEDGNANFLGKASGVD
In short: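 Whole-cell reporter assay with recombinant guanylate cyclase; endpoint = minimal effective concentration.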

| Compound | MEC |
| --- | --- |
| CCC(C)(N)CNC(=O)c1c(C)nc2c(OCc3c(F)ccc(F)c3F)cc(C)cn12 (single isomer, unassigned; enantiomer b) [Example 275, ent-N-(2-Amino-2-methylbutyl)-2,6-dimethyl-8-[(2,3,6-trifluorobenzyl)oxy]imidazo[1,2-a]-pyridine-3-carboxamide (Enantiomer B)] | 0.10 µM |
| CCCC(C)(N)CNC(=O)c1c(C)nc2c(OCc3c(F)cccc3F)cc(OC)cn12 (single isomer, unassigned; enantiomer b) [Example 278, ent-N-(2-amino-2-methylpentyl)-8-[(2,6-difluorobenzyl)oxy]-6-methoxy-2-methylimidazo[1,2-a]pyridine-3-carboxamide (Enantiomer B)] | 0.3 µM |
| CCCC(C)(N)CNC(=O)c1c(C)nc2c(OCc3c(F)cccc3F)cc(C3CC3)cn12 (single isomer, unassigned; enantiomer b) [Example 281, ent-N-(2-amino-2-methylpentyl)-6-cyclopropyl-8-[(2,6-difluorobenzyl)oxy]-2-methylimidazo[1,2-a]pyridine-3-carboxamide (Enantiomer B)] | 0.3 µM |
| Cc1cc(OCc2c(F)cccc2F)c2nc(C)c(C(=O)NCC(C)(N)CF)n2c1 (single isomer, unassigned; enantiomer b) [Example 284, ent-N-(2-amino-3-fluoro-2-methylpropyl)-8-[(2,6-difluorobenzyl)oxy]-2,6-dimethylimidazo[1,2-a]pyridine-3-carboxamide (Enantiomer B)] | 0.1 µM |

Results, then the compound that gave them:

| MEC | Compound |
| --- | --- |
| 0.65 µM | Cc1cc(OCc2c(F)cccc2F)c2nc(C)c(C(=O)NCC(C)(N)CO)n2c1 (single isomer, unassigned; enantiomer b) [Example 269, ent-N-(2-Amino-3-hydroxy-2-methylpropyl)-8-[(2,6-difluorobenzyl)oxy]-2,6-dimethylimidazo-[1,2-a]pyridine-3-carboxamide (Enantiomer B)] |
| 0.65 µM | CCCC(C)(N)CNC(=O)c1c(C)nc2c(OCc3c(F)cccc3F)cc(N3CCOCC3)cn12 (single isomer, unassigned; enantiomer b) [Example 280, ent-N-(2-amino-2-methylpentyl)-8-[(2,6-difluorobenzyl)oxy]-2-methyl-6-(morpholin-4-yl)imidazo[1,2-a]pyridine-3-carboxamide (Enantiomer B)] |
| 0.1 µM | Cc1cc(OCc2c(F)ccc(F)c2F)c2nc(C)c(C(=O)NCC(C)(N)CF)n2c1 (single isomer, unassigned; enantiomer b) [Example 286, ent-N-(2-amino-3-fluoro-2-methylpropyl)-2,6-dimethyl-8-[(2,3,6-trifluorobenzyl)oxy]imidazo[1,2-a]pyridine-3-carboxamide (Enantiomer B)] |
| 0.3 µM | CCCC(C)(N)CNC(=O)c1c(C)nc2c(OCc3c(F)cccc3F)cc(C(F)F)cn12 (single isomer, unassigned; enantiomer b) [Example 289, ent-N-(2-amino-2-methylpentyl)-8-[(2,6-difluorobenzyl)oxy]-6-(difluoromethyl)-2-methylimidazo[1,2-a]pyridine-3-carboxamide Formate (Enantiomer B)] |
| 0.3 µM | CCCC(C)(N)CNC(=O)c1c(C)nc2c(OCc3c(F)cccc3F)cc(C(F)F)cn12 (single isomer, unassigned; enantiomer b) [Example 290, ent-N-(2-amino-2-methylpentyl)-8-[(2,6-difluorobenzyl)oxy]-6-(difluoromethyl)-2-methylimidazo[1,2-a]pyridine-3-carboxamide (Enantiomer B)] |
| 0.03 µM | Cc1nc2c(OCc3c(F)cccc3F)cc(C(F)F)cn2c1C(=O)NCC(C)(N)CF (single isomer, unassigned; enantiomer b) [Example 292, ent-N-(2-amino-3-fluoro-2-methylpropyl)-8-[(2,6-difluorobenzyl)oxy]-6-(difluoromethyl)-2-methylimidazo[1,2-a]pyridine-3-carboxamide (Enantiomer B)] |
